How the values were obtained:
[1] = Relative humidity (RH) stress of salts; type: physicochemical; details: solid in open vial, 10 days at 94% RH
Description: Solids of select Compound 1 salts were exposed to ˜94% RH (ASTM Standard E, 104-85, 1996) for a given period of time by placing the solids into an open vial inside a sealed container. Samples were observed visually for signs of deliquescence after removal from the stress environment.

p97 = p97 (Homo sapiens, UniProt P55072); test: p97 inhibition assay (ADP glo luminescence); type: biochemical; details: ATP 20 μM, p97 20 nM, 37° C. for 15 min
p97, sequence (P55072 whole entry): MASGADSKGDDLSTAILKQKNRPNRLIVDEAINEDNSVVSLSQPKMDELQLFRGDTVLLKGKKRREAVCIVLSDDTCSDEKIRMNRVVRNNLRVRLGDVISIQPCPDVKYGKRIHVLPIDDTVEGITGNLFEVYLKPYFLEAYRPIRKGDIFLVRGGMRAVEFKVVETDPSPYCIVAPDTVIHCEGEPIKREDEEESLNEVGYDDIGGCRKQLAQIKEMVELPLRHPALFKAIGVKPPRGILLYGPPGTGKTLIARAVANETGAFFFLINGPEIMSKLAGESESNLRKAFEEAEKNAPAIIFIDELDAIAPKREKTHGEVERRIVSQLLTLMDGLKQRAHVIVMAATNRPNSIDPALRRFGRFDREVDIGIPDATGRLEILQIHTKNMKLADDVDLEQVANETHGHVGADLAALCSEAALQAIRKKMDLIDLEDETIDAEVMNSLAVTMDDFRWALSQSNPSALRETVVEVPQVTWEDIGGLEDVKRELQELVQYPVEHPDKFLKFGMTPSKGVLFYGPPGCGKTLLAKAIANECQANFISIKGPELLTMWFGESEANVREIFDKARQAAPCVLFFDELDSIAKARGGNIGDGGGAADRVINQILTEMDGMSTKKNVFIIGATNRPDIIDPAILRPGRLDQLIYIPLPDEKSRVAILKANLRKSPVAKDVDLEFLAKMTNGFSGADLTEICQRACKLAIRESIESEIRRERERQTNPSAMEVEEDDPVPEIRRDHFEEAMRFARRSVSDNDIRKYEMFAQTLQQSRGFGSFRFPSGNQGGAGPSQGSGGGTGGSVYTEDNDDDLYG
Description: The p97 assay is an assay used to determine inhibitory activity of compounds against the p97 complex. Inhibition of activity of the p97 proteosome complex can enable apoptosis and cause elimination of neoplastic cells (cancer cells). The assay follows that of Christianson in Nat. Cell Biol., (2011) 14:93. The reagents used for the p97 assay include an assay buffer which is a mixture of 50 mM TRIS pH 7.5, 20 mM MgCI˜, 0.02% TX-100, 1 mM DTT and 0.2% (v/v) glycerol. The well plate is a Corning 3674, 384w plate. The identification kit is an ADP glo kit (Promega): stop buffer, detection reagent.
The assay is conducted as follows: • Serial dilute compound in DMSO in a 1:3.33-fold 10 point serial dilution. • In each well of 384w plate add the following reagents: • 0.5 μL compound serial diluted in DMSO (Final Conc. 10%) • 2 μL ATP (Final Conc.=20 μM, diluted in assay buffer) • 2.5 μL p97 (Final Conc.=20 nM, diluted in assay buffer). • Incubate at 37° C. for 15 min. • Add 5 μL of stop buffer, incubate at RT for 40 min. • Add 10 μL of detection reagent, incubate at RT for 30 min. • Read luminescence on Envision plate reader. […]

Compound	RH stress: change in appearance/texture (signs of deliquescence, visual) [1]	IC50 (p97)
Cc1cc2c(C(N)=O)cccc2n1-c1nc2c(c(NCc3ccccc3)n1)CCCN2.O=S(=O)(O)O.O=S(=O)(O)O [Compound 1 sulfate, 1-(4-(benzylamino)-5,6,7,8-tetrahydropyrido[2,3-d]pyrimidin-2-yl)-2-methyl-1H-indole-4-carboxamide sulfuric acid salt (sulfate)]	no apparent change in appearance/texture	–
Cc1cc2c(C(N)=O)cccc2n1-c1nc2c(c(NCc3ccccc3)n1)CCCN2.Cc1ccc(S(=O)(=O)O)cc1.Cc1ccc(S(=O)(=O)O)cc1 [Compound 1 tosylate, 1-(4-(benzylamino)-5,6,7,8-tetrahydropyrido[2,3-d]pyrimidin-2-yl)-2-methyl-1H-indole-4-carboxamide p-toluenesulfonic acid salt (tosylate)]	no apparent change in appearance/texture	–
Cc1cc2c(C(N)=O)cccc2n1-c1nc2c(c(NCc3ccccc3)n1)CCCN2.Cl.Cl [Compound 1 hydrochloride, 1-(4-(benzylamino)-5,6,7,8-tetrahydropyrido[2,3-d]pyrimidin-2-yl)-2-methyl-1H-indole-4-carboxamide hydrochloric acid salt (hydrochloride)]	no apparent change in appearance/texture	–
Cc1cc2c(C(N)=O)cccc2n1-c1nc2c(c(NCc3ccccc3)n1)CCCN2 [Compound 1, 1-(4-(benzylamino)-5,6,7,8-tetrahydropyrido[2,3-d]pyrimidin-2-yl)-2-methyl-1H-indole-4-carboxamide]	–	< 30 nM

— US12435085B2, “Crystalline forms and formulations of a VCP/p97 inhibitor” (CASI Pharmaceuticals, Inc., priority 2020, dated 2025)
